Target: T1, mitochondrial ATP synthase (Mus musculus, UniProt P56480+Q03265)
T1 construct: from tissue; host or cells: mouse heart, isolated mitochondria (fresh or frozen)
Assay: ATP synthesis (oxygen consumption, Seahorse XF96) in fresh heart mitochondria
Assay type: biochemical
Description: To assess whether the fraction of synthetic and reverse hydrolytic activities of mitochondrial ATP synthase can be measured in the same preparation, a protocol was developed to monitor changes in oxygen consumption and proton release in response to changes in mitochondrial ATP synthase activity. The proton released and the concomitant changes in the pH can be monitored using the ECAR (extracellular acidification) channel in the Agilent Seahorse XF analyzer using isolated mitochondria, to ensure that the changes in pH cannot be attributed to glycolysis or other contributors to ECAR.
Mice were anesthetized with isoflurane followed by a cervical dislocation, and the heart was immediately removed and placed in ice cold relaxation buffer (5 mM sodium pyrophosphate, 100 mM KCl, 5 mM EGTA, 5 mM HEPES; pH 7.4). The heart was squeezed with tweezers to remove blood, minced with scissors, and then placed in a glass-glass Dounce homogenizer with 3 mL of HES homogenization buffer (250 mM sucrose, 5 mM HEPES, 1 mM EDTA; pH to 7.2, adjusted with KOH). The heart tissue was homogenized first with the loose pestle and followed by the tight pestle. The homogenized tissue was placed in a pre-chilled 15 ml conical tube and centrifuged at 900×g (4° C.) for 10 minutes (min). The supernatant was removed, placed in a new tube and centrifuged again at 900×g for 10 min. The supernatant was then transferred to 2 mL microcentrifuge tubes and centrifuged at 10,000×g (4° C.) for 10 min. The mitochondrial pellets were re-suspended in ice cold HES buffer and mitochondrial protein was measured with a BCA assay (Pierce). The concentrated mitochondrial pellet was stored on ice.
Heart mitochondria (0.75-1.5 μg) were loaded into a Seahorse XF96 microplate in 20 μL of MAS (70 mM Sucrose, 220 mM Mannitol, 5 mM KH2PO4, 5 mM MgCl2, 1 mM EGTA, 2 mM HEPES; pH 7.2) plus 1% free fatty acid BSA containing substrates. The loaded plate was centrifuged at 2,000×g for 5 min at 4° C. […]
Oxygen consumption was measured in isolated fresh intact mitochondria from mouse heart, as oxygen consumption is linked to maximal ATP synthesis and proton release when mitochondria are respiring either in the presence of substrates and ADP (ATP synthesizing mitochondria or state 3) or in the presence of substrates but not ADP (state 4). […]
OCR and ECAR were measured in a Seahorse XF96 analyzer under basal conditions as well as after injection of 2 μM oligomycin, two sequential additions of 1.5 μM FCCP, followed by 1 μM rotenone with 2 μM antimycin A. Respiratory parameters were calculated according to standard protocols, and all rates were corrected for non-mitochondrial respiration/background signal by subtracting the oxygen consumption rate insensitive to rotenone plus antimycin A.

Measured: change in ATP synthesis

Oc1ccc2c(c1)OC(c1ccc(O)c(C(F)(F)F)c1)C(O)C2 (single isomer, unassigned) [Compound 77b, 2-(4-hydroxy-3-(trifluoromethyl)phenyl)chromane-3,7-diol]
no change: Complex I substrates, fresh mitochondria | Complex II substrates, fresh mitochondria | fresh heart mitochondria (FIG. 1, FIG. 2)

Source: patent US20240254135A1, “POLYPHENOL COMPOUNDS” (Epirium Bio Inc., priority 2022, published 2024)
